Our source for the Ki values is BindingDB's records for doi:10.1016/j.chembiol.2004.02.012 (Triad Therapeutics, 2004).

The term Ki denotes a measure of affinity in units of concentration, obtained from inhibition or displacement. Lower therefore signals higher affinity.

Assay in all cases: Steady-State Inhibition Assay
Conditions in all cases: pH 7.4

In assay [1] the target is T1, Quinone-dependent D-lactate dehydrogenase (Escherichia coli (strain K12), UniProt P06149).
T1 sequence (P06149 whole entry): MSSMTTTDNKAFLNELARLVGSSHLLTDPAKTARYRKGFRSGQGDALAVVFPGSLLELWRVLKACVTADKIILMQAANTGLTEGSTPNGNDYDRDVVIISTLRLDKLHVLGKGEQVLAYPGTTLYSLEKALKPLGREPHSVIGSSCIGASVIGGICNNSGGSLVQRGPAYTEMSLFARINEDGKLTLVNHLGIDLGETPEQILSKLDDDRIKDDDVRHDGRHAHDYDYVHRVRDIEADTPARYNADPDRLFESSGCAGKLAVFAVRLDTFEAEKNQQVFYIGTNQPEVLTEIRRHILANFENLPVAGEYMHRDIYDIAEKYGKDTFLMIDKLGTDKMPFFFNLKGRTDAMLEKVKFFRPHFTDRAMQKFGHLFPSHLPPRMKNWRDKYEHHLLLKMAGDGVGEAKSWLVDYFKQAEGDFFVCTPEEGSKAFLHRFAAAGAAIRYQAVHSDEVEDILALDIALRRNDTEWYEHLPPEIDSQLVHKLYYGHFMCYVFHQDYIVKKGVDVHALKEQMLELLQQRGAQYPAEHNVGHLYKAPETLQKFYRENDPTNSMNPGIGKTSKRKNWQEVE
The text has this: (§1) All reactions were monitored spectrophotometrically at 340 nm by using initial rates from the first 5% of reaction.

The target in assay [2] is 4-hydroxy-tetrahydrodipicolinate reductase (Escherichia coli (strain K12), UniProt P04036).
Text: as §1

Assay [3] addresses T2, 1-deoxy-D-xylulose 5-phosphate reductoisomerase (Escherichia coli (strain K12), UniProt P45568).
T2 sequence (P45568 whole entry): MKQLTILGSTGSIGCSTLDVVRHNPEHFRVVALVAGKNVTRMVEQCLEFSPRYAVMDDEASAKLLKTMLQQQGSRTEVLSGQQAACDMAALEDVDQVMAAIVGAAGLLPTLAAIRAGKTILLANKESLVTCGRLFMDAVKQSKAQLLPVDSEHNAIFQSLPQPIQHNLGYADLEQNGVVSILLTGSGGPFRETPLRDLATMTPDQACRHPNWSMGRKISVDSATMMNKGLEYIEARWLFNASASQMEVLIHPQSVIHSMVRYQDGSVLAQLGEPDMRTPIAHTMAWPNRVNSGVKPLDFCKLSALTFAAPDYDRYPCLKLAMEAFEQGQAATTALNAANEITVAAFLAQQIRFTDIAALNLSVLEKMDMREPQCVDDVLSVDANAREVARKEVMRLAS
Text: as §1

Chain of 4-hydroxy-tetrahydrodipicolinate reductase (P04036 whole entry): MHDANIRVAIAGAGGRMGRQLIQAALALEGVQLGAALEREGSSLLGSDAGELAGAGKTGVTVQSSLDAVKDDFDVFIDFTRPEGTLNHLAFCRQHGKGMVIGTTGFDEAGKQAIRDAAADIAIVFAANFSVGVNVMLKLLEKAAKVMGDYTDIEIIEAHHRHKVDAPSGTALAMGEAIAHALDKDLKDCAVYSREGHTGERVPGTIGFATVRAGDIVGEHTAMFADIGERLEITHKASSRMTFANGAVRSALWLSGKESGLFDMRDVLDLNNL

With `O=C(O)CN1C(=O)/C(=C/c2ccc(O)c(O)c2)SC1=S` [Bi-ligand, 1], the Ki in assay [1] is 55 µM; in assay [2], 0.026 µM; in assay [3], > 50 µM.

In the case of `O=C(CCCCN1C(=O)/C(=C/c2ccc(O)c(O)c2)SC1=S)NCc1ccc(Cl)c(Cl)c1` [Bi-ligand, 2], the Ki in assay [1] was 0.042 µM; in assay [2], > 50 µM; in assay [3], 10 µM.

Consider `Cc1ccc(Oc2ccc(NC(=O)CN3C(=O)/C(=C/c4ccc(O)c(O)c4)SC3=S)cc2)cc1` [Bi-ligand, 3], for which the Ki in assay [1] is 12 µM; in assay [2], > 25 µM; in assay [3] it was 0.202 µM.

For `O=C(CN1C(=O)/C(=C/c2ccc(O)c(O)c2)SC1=S)NCCSc1cc(C(=O)O)nc(C(=O)O)c1` [Bi-ligand, 4], the values for the inhibitory constant (Ki) in assay [1], in assay [2] and in assay [3] were 0.62 µM, 0.1 µM and 7.9 µM, respectively.
